The text below walks through data of patent US7993884B2, “Beta-xylosidase for conversion of plant cell wall carbohydrates to simple sugars” (The United States of America as represented by the …, priority 2006, dated 2011).

“And” between values parts separate entries of the source, which are not always exact repeats. Equal entries are not always repeated. “Also recorded” adds a separate entry of the source.

The target in data set [1] is T1, SXA (Selenomonas ruminantium, UniProt O52575). The data set can be described thus: SXA-catalyzed hydrolysis of 4NP-glycoside substrates, initial rates (Methods A and B).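 As to all read-outs here: initial rates from 4-nitrophenol release, tracked by absorbance over roughly 0.3 min and converted using product-minus-substrate extinction differences, in 1 mL mixtures started by enzyme addition.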 Particulars: for Km / kcat Rel. to η/ηo = 1: Exper. 2: MES pH 6.00, Method B. It is filed as biochemical.
Data set [2] deals with T1, SXA. The experiment in a line: biochemical. The conditions noted are these: read-out: Km^4NPA, pH 5.3, 25° C.
Data set [3] addresses T1, SXA. Particulars: pH 5.3 and 25° C., relative to A2.
For data set [4], the target named is Selenomonas ruminantium GA192 β-D-xylosidase (SXA, parent SEQ ID NO: 2) variant D14A (Pseudoselenomonas ruminantium, UniProt O52575, D14A). The data set can be described thus: Steady-state kinetics of SXA mutant D14A with 4NP substrates.
Data set [5] has as its target Selenomonas ruminantium GA192 β-D-xylosidase (SXA, parent SEQ ID NO: 2) variant E186A (Pseudoselenomonas ruminantium, UniProt O52575, E186A). The experiment in a line: Steady-state kinetics of SXA mutant E186A with 4NP substrates.
In data set [6] the target is T2, Selenomonas ruminantium GA192 β-D-xylosidase (SXA), wild type, SEQ ID NO: 2 (Pseudoselenomonas ruminantium, UniProt O52575). The data set can be described thus: Steady-state kinetics of SXA with 4NPX2, A2 and X2-X6 by HPLC (Example 1).
Data set [7] concerns the target T2, Selenomonas ruminantium GA192 β-D-xylosidase (SXA), wild type, SEQ ID NO: 2. The data set can be described thus: Steady-state kinetics of SXA with 4NP-glycosides (Example 1, Methods A and B).
The target in data set [8] is β-D-xylosidase/α-L-arabinofuranosidase (Selenomonas ruminantium, UniProt O52575). The experiment in a line: Inhibition of the enzyme by monosaccharides and ethanol (detailed description). The format is biochemical, Selenomonas ruminantium GA192. The conditions noted are these: read-out: Ki.
Substrate in data set [9]: O=[N+]([O-])c1ccc(O[C@@H]2OC[C@@H](O)[C@H](O)[C@H]2O)cc1
The experiment in a line: purified protein, by the assay type. The conditions noted are these: other: 100 mM succinate-NaOH, pH 5.3, 25° C, Method A.

Substrate in data set [10]: O=[N+]([O-])c1ccc(O[C@@H]2O[C@@H](CO)[C@H](O)[C@H]2O)cc1
The data set can be described thus: purified protein, by the assay type. Particulars: other: 100 mM succinate-NaOH, pH 5.3, 25° C, Method A.

Setting [11] is: I=0.3 M, 25° C., Eq. 7 (4NPX), Eq. 5 (4NPA).
Setting [12] is: 100 mM succinate-NaOH, pH 5.3, 25° C, Method A.

`O=[N+]([O-])c1ccc(O[C@@H]2O[C@@H](CO)[C@H](O)[C@H]2O)cc1` [4NPA, 4-nitrophenyl-α-L-arabinofuranoside]: the “pH-independent kcat/Km” value on SXA [1] stood at 5.10±0.07 s^−1 mM^−1. In addition, the “Relative Rate” value on SXA [1] (5 mM 4NP glycoside, 100 mM succinate-NaOH, pH 5.3, 25° C., Method A, initial rate relative to 4NPX) was found to be 0.101 ± 0.003. Besides, the “pH-independent 1/Km” value on SXA [1] (1/Km versus pH, Eq. 4 (4NPX), Eq. 5 (4NPA)) is on record as 1.60±0.02 mM^−1. The Michaelis-Menten constant (Km) at SXA [1] (η/ηo 1.00) came to 745 ± 36 µM; on SXA [1] (η/ηo 6.85 (50% sucrose)) it was 754 ± 101 µM; on SXA [2] (FIG. 22A experiment (D-xylose α:β 6:1)), 880 ± 130 µM; at SXA [2] (FIG. 22B experiment (D-xylose α:β 1:2.5)) it was 900 ± 13 µM. Also, the “kcat Rel. to η/ηo = 1” value came to 1.00 at SXA [1] (η/ηo 1.00); 0.960 ± 0.040 at SXA [1] (η/ηo 6.85 (50% sucrose)); 0.960 ± 0.040 in data set [7] (pH 6.00, η/ηo 6.85). In addition, the “pKa of kcat versus pH (single group)” value on SXA [1] (I=0.3 M, 25° C., Eq. 4) was 3.6 and 3.64±0.10. Also, at SXA [1] (I=0.3 M, 25° C., Eq. 5), the “pKa1 of kcat/Km versus pH” value is ~5.0 and 5.06±0.02. The “pKa2 of kcat/Km versus pH” value on SXA [1] (I=0.3 M, 25° C., Eq. 5) worked out at 7.20±0.02. Also, at SXA [1] (setting [11]), the “pKa1 of 1/Km versus pH” value is given as 5.00±0.03. In addition, at SXA [1] (setting [11]), the “pKa2 of 1/Km versus pH” value came to 7.16±0.03. The “binding to dianionic SXA (D14^−E186^−)” value at SXA [1] (from pH dependencies) was “weakly, if at all; also recorded: no affinity”. The molecule also registered a relative kcat values at SXA [3] of 34. In addition, the turnover number (kcat) in [4] (setting [12]) was determined as 0.000936 ± 0.000012 s⁻¹; in data set [5] (setting [12]), 0.000239 ± 0.000008 s⁻¹; in [7] (100 mM MES-NaOH, pH 6.00, 25° C, Method B, 50% sucrose, η/ηo 6.85) it was 2.87 ± 0.12 s⁻¹; in data set [7] (100 mM MES-NaOH, pH 6.00, 25° C, Method B, η/ηo 1.00), 2.99 ± 0.05 s⁻¹; in data set [7] (100 mM succinate-NaOH, pH 5.3, 25° C, Method A, no sucrose), 2.68 ± 0.06 s⁻¹. Moreover, the “factor by which kcat is degraded vs wild type” value in data set [4] (pH 5.3, 25° C.) was determined as 3000; in data set [5] (pH 5.3, 25° C.), 11000. The “kcat factor between 4NPA and A2” value in [6] (4NPA larger / A2 reduced) is 36 fold. Besides, in [6] (pH 5.3, 25° C, A2 = 1), the relative kcat value was determined as 34. In addition, the “affinity of dianionic SXA (D14^−E186^−), higher than that of monoanionic SXA (D14^−E186^H)” value in [7] (from pH dependence of 1/Km) was “no affinity”.

`O=C[C@H](O)[C@@H](O)[C@@H](O)CO` [L-arabinose]: in data set [8], the inhibition constant Ki came to 20 ± 0.5 mM.

B1: Selenomonas ruminantium GA192 β-D-xylosidase (SXA, parent SEQ ID NO: 2) variant E186A (Pseudoselenomonas ruminantium; E186A) (protein)
chain: MNIQNPVLKGFNPDPSIVRAGDDYYIATSTFEWFPGVQIHHSKDLVHWHLVAHPLSTTEFLDMKGNPDSGGIWAPDLSYADGKFWLIYTDVKVVDGMWKDCHNYLTTAEDIKGPWSKPILLNGAGFDASLFHDPSGKKYLVNMYWDQRVYHHNFYGIALQEYSVAEEKLIGKPEIIYKGTDIAYTAGPHLYYINDMYYLMTAEGGTTYQHSETIARSKTIHGPYEIQPDYPLLSAWKEVHNPLQKCGHASLVETQNGQWYLAHLTGRPLPAPAGFPSREREQHAFCPLGRETAIQKIEWQDGWPVVVGGQQGSLEVEAPDLPQQEWAPTYEERDDFDKDTLNINFQTLRIPFSEHLGSLTARPGFLRLYGRESLQSKFTQAHIARRWQSFNFDAGTSVEFSPNSFQQMAGLTCYYNTENWSSIHVTWNEEKGRIIDLVTADNGTFSMPLAGAEIPIPDEVKTVHFKVSVRGRIYQYAYSFDGETFHTLPIELPSWKLSDDYVRGGGFFTGAFVGINAIDITGTALPADFDYFTYKELD
Turning to B1, the Michaelis-Menten constant (Km) in data set [9] is given as 1.10 ± 0.05 mM; in data set [10] it was 1.32 ± 0.11 mM.

B2: Selenomonas ruminantium GA192 β-D-xylosidase (SXA, parent SEQ ID NO: 2) variant D14A (Pseudoselenomonas ruminantium; D14A) (protein)
chain: MNIQNPVLKGFNPAPSIVRAGDDYYIATSTFEWFPGVQIHHSKDLVHWHLVAHPLSTTEFLDMKGNPDSGGIWAPDLSYADGKFWLIYTDVKVVDGMWKDCHNYLTTAEDIKGPWSKPILLNGAGFDASLFHDPSGKKYLVNMYWDQRVYHHNFYGIALQEYSVAEEKLIGKPEIIYKGTDIAYTEGPHLYYINDMYYLMTAEGGTTYQHSETIARSKTIHGPYEIQPDYPLLSAWKEVHNPLQKCGHASLVETQNGQWYLAHLTGRPLPAPAGFPSREREQHAFCPLGRETAIQKIEWQDGWPVVVGGQQGSLEVEAPDLPQQEWAPTYEERDDFDKDTLNINFQTLRIPFSEHLGSLTARPGFLRLYGRESLQSKFTQAHIARRWQSFNFDAGTSVEFSPNSFQQMAGLTCYYNTENWSSIHVTWNEEKGRIIDLVTADNGTFSMPLAGAEIPIPDEVKTVHFKVSVRGRIYQYAYSFDGETFHTLPIELPSWKLSDDYVRGGGFFTGAFVGINAIDITGTALPADFDYFTYKELD
Regarding B2, the Michaelis-Menten constant (Km) was determined as 0.777 ± 0.036 mM in [9] and 0.771 ± 0.029 mM in data set [10].

B3: Selenomonas ruminantium GA192 β-D-xylosidase (SXA, parent SEQ ID NO: 2) variant R290A (Pseudoselenomonas ruminantium; R290A) (protein)
chain: MNIQNPVLKGFNPDPSIVRAGDDYYIATSTFEWFPGVQIHHSKDLVHWHLVAHPLSTTEFLDMKGNPDSGGIWAPDLSYADGKFWLIYTDVKVVDGMWKDCHNYLTTAEDIKGPWSKPILLNGAGFDASLFHDPSGKKYLVNMYWDQRVYHHNFYGIALQEYSVAEEKLIGKPEIIYKGTDIAYTEGPHLYYINDMYYLMTAEGGTTYQHSETIARSKTIHGPYEIQPDYPLLSAWKEVHNPLQKCGHASLVETQNGQWYLAHLTGRPLPAPAGFPSREREQHAFCPLGAETAIQKIEWQDGWPVVVGGQQGSLEVEAPDLPQQEWAPTYEERDDFDKDTLNINFQTLRIPFSEHLGSLTARPGFLRLYGRESLQSKFTQAHIARRWQSFNFDAGTSVEFSPNSFQQMAGLTCYYNTENWSSIHVTWNEEKGRIIDLVTADNGTFSMPLAGAEIPIPDEVKTVHFKVSVRGRIYQYAYSFDGETFHTLPIELPSWKLSDDYVRGGGFFTGAFVGINAIDITGTALPADFDYFTYKELD
In the case of B3, the Michaelis constant (Km) in [9] (not well determined (highest 4NPX 5 mM)) is on record as 50.3 ± 8.8 mM.

B4: Selenomonas ruminantium GA192 β-D-xylosidase (SXA, parent SEQ ID NO: 2) variant H248A (Pseudoselenomonas ruminantium; H248A) (protein)
chain: MNIQNPVLKGFNPDPSIVRAGDDYYIATSTFEWFPGVQIHHSKDLVHWHLVAHPLSTTEFLDMKGNPDSGGIWAPDLSYADGKFWLIYTDVKVVDGMWKDCHNYLTTAEDIKGPWSKPILLNGAGFDASLFHDPSGKKYLVNMYWDQRVYHHNFYGIALQEYSVAEEKLIGKPEIIYKGTDIAYTEGPHLYYINDMYYLMTAEGGTTYQHSETIARSKTIHGPYEIQPDYPLLSAWKEVHNPLQKCGAASLVETQNGQWYLAHLTGRPLPAPAGFPSREREQHAFCPLGRETAIQKIEWQDGWPVVVGGQQGSLEVEAPDLPQQEWAPTYEERDDFDKDTLNINFQTLRIPFSEHLGSLTARPGFLRLYGRESLQSKFTQAHIARRWQSFNFDAGTSVEFSPNSFQQMAGLTCYYNTENWSSIHVTWNEEKGRIIDLVTADNGTFSMPLAGAEIPIPDEVKTVHFKVSVRGRIYQYAYSFDGETFHTLPIELPSWKLSDDYVRGGGFFTGAFVGINAIDITGTALPADFDYFTYKELD
For the molecule B4, the Michaelis constant (Km) in data set [9] was found to be 1.05 ± 0.07 mM.
